Read-outs that look alike come from different tables or passages of the source.
Columns and labels:
[1] = target: Recombinant human BRD4(1-477) (Homo sapiens (Human), UniProt O60885); assay: BRD4 TR-FRET biochemical IC50 assay; type: binding; details: TR-FRET, tetra-acetylated histone peptide; read-out: BRD4 IC50
[2] = test system: MV4-11; assay: MV4-11 (3 Days) EC50; type: cell-based

| Structure (SMILES) | IC50 [1] [nM] | EC50 ([2]; Homo sapiens, MV4-11, 72 h) [nM] | EC50 [2] [nM] | EC50 ([2]; Homo sapiens, 72 h) [nM] |
| --- | --- | --- | --- | --- |
| Cc1noc(C)c1-c1ccc2c(c1)C(N[C@@H](CO)C(C)C)(c1ccccc1)C(=O)N2 (single isomer, unassigned) [Compound 2.11b] | 150 | 180 |  |  |
| Cc1noc(C)c1-c1ccc2c(c1)C(N[C@H](CO)C(C)C)(c1ccccc1)C(=O)N2 (single isomer, unassigned) [Compound 2.12a] | 89 | 144 |  |  |
| Cc1noc(C)c1-c1ccc2c(c1)C(NC[C@@H](C)O)(c1ccccc1)C(=O)N2 (single isomer, unassigned) [Compound 2.13b] | 81 | 140 |  |  |
| Cc1noc(C)c1-c1ccc2c(c1)C(NC[C@H](C)O)(c1ccccc1)C(=O)N2 (single isomer, unassigned) [Compound 2.14a] | 78 | 115 |  |  |
| Cc1noc(C)c1-c1ccc2c(c1)C(N[C@H](CO)C(C)C)(C1CCCCC1)C(=O)N2 (single isomer, unassigned) [Compound 2.19b] | 170 | 282 |  |  |
| Cc1noc(C)c1-c1ccc2c(c1)C(N[C@@H](CO)C(C)C)(C1CCCCC1)C(=O)N2 (single isomer, unassigned) [Compound 2.20b] | 350 | 377 |  |  |
| COC(=O)[C@@H]1C[C@@H](O)CN1C1(c2ccccc2)C(=O)Nc2ccc(-c3c(C)noc3C)cc21 (single isomer, unassigned) [Compound 2.50a] | 460 | 681 |  |  |
| Cc1noc(C)c1-c1ccc2c(c1)C(c1ccsc1)(N1CCC[C@@H](N)C1)C(=O)N2 (single isomer, unassigned) [Compound 4.6a] | 30 |  | 102 |  |
| Cc1noc(C)c1-c1ccc2c(c1)C(c1ccsc1)(N1CCC[C@@H](N)C1)C(=O)N2 (single isomer, unassigned) [Compound 4.6b] | 24 |  | 35 |  |
| Cc1noc(C)c1-c1ccc2c(c1)C(c1ccsc1)(N1CCC[C@H](N)C1)C(=O)N2 (single isomer, unassigned) [Compound 4.7a] | 24 | 35 |  |  |
| Cc1noc(C)c1-c1ccc2c(c1)C(c1ccsc1)(N1CCC[C@H](N)C1)C(=O)N2 (single isomer, unassigned) [Compound 4.7b] | 8 | 34 |  |  |
| Cc1noc(C)c1-c1ccc2c(c1)C(O)(c1ccccc1)C(=O)N2 (stereo not drawn) [Compound 1.1, 5-(3,5-dimethylisoxazol-4-yl)-3-hydroxy-3-phenylindolin-2-one] | 51 |  |  | 124 |
| Cc1noc(C)c1-c1ccc2c(c1)C(O)(c1ccc(Cl)cc1)C(=O)N2 (stereo not drawn) [Compound 1.2, 3-(4-chlorophenyl)-5-(3,5-dimethylisoxazol-4-yl)-3-hydroxyindolin-2-one] | 260 |  |  | 364 |
| Cc1noc(C)c1-c1ccc2c(c1)C(O)(c1cccc(Cl)c1)C(=O)N2 (stereo not drawn) [Compound 1.3, 3-(3-chlorophenyl)-5-(3,5-dimethylisoxazol-4-yl)-3-hydroxyindolin-2-one] | 380 |  |  | 369 |
| Cc1noc(C)c1-c1ccc2c(c1)C(O)(c1ccc(F)cc1)C(=O)N2 (stereo not drawn) [Compound 1.4, 5-(3,5-dimethylisoxazol-4-yl)-3-(4-fluorophenyl)-3-hydroxyindolin-2-one] | 100 |  |  | 181 |
| Cc1ccc(C2(O)C(=O)Nc3ccc(-c4c(C)noc4C)cc32)cc1 (stereo not drawn) [Compound 1.5, 5-(3,5-dimethylisoxazol-4-yl)-3-hydroxy-3-p-tolylindolin-2-one] | 180 |  |  | 285 |
| Cc1cc(C2(O)C(=O)Nc3ccc(-c4c(C)noc4C)cc32)ccc1F (stereo not drawn) [Compound 1.6, 5-(3,5-dimethylisoxazol-4-yl)-3-(4-fluoro-3-methylphenyl)-3-hydroxyindolin-2-one] | 380 |  |  | 594 |
| Cc1ccccc1C1(O)C(=O)Nc2ccc(-c3c(C)noc3C)cc21 (stereo not drawn) [Compound 1.7, 5-(3,5-dimethylisoxazol-4-yl)-3-hydroxy-3-o-tolylindolin-2-one] | 570 |  |  | 1500 |
| Cc1noc(C)c1-c1ccc2c(c1)C(O)(c1ccc(F)c(F)c1)C(=O)N2 (stereo not drawn) [Compound 1.8, 3-(3,4-difluorophenyl)-5-(3,5-dimethylisoxazol-4-yl)-3-hydroxyindolin-2-one] | 200 |  |  | 425 |
| COc1ccc(C2(O)C(=O)Nc3ccc(-c4c(C)noc4C)cc32)cc1 (stereo not drawn) [Compound 1.9, 5-(3,5-dimethylisoxazol-4-yl)-3-hydroxy-3-(4-methoxyphenyl)indolin-2-one] | 410 |  |  | 536 |
| Cc1ccsc1C1(O)C(=O)Nc2ccc(-c3c(C)noc3C)cc21 (stereo not drawn) [Compound 1.13, 5-(3,5-dimethylisoxazol-4-yl)-3-hydroxy-3-(3-methylthiophen-2-yl)indolin-2-one] | 560 |  |  | 746 |

| Structure (SMILES) | IC50 [1] [nM] | EC50 ([2]; Homo sapiens, MV4-11, 72 h) [nM] | EC50 [2] [nM] | EC50 ([2]; Homo sapiens, 72 h) [nM] |
| --- | --- | --- | --- | --- |
| Cc1noc(C)c1-c1ccc2c(c1)C(O)(C1CCCCC1)C(=O)N2 (stereo not drawn) [Compound 1.15, 3-cyclohexyl-5-(3,5-dimethylisoxazol-4-yl)-3-hydroxyindolin-2-one] | 77 |  |  | 183 |
| Cc1noc(C)c1-c1ccc2c(c1)C(O)(C1CCCC1)C(=O)N2 (stereo not drawn) [Compound 1.17, 3-cyclopentyl-5-(3,5-dimethylisoxazol-4-yl)-3-hydroxyindolin-2-one] | 270 |  |  | 671 |
| Cc1noc(C)c1-c1ccc2c(c1)C(O)(C1CCC1)C(=O)N2 (stereo not drawn) [Compound 1.18, 3-cyclobutyl-5-(3,5-dimethylisoxazol-4-yl)-3-hydroxyindolin-2-one] | 510 |  |  | 1140 |
| Cc1noc(C)c1-c1ccc2c(c1)C(O)(C1CC1)C(=O)N2 (stereo not drawn) [Compound 1.19, 3-cyclopropyl-5-(3,5-dimethylisoxazol-4-yl)-3-hydroxyindolin-2-one] | 850 |  |  | 1960 |
| CC#CC1(O)C(=O)Nc2ccc(-c3c(C)noc3C)cc21 (stereo not drawn) [Compound 1.22, 5-(3,5-dimethylisoxazol-4-yl)-3-hydroxy-3-(prop-1-ynyl)indolin-2-one] | 220 | 478 |  |  |
| Cc1noc(C)c1-c1ccc2c(c1)C(Cl)(c1ccccc1)C(=O)N2 (stereo not drawn) [Compound 1.31, 3-Chloro-5-(3,5-dimethylisoxazol-4-yl)-3-phenylindolin-2-one] | 58 | 152 |  |  |
| Cc1noc(C)c1-c1ccc2c(c1)C(OCCO)(c1ccccc1)C(=O)N2 (stereo not drawn) [Compound 1.32, 5-(3,5-Dimethylisoxazol-4-yl)-3-(2-hydroxyethoxy)-3-phenylindolin-2-one] | 79 | 82 |  |  |
| Cc1noc(C)c1-c1ccc2c(c1)C(NCCO)(c1ccccc1)C(=O)N2 (stereo not drawn) [Compound 2.1, 5-(3,5-dimethylisoxazol-4-yl)-3-(2-hydroxyethylamino)-3-phenylindolin-2-one] | 70 | 78 |  |  |
| Cc1noc(C)c1-c1ccc2c(c1)C(c1ccccc1)(N1CCCCC1)C(=O)N2 (stereo not drawn) [Compound 2.3, 5-(3,5-dimethylisoxazol-4-yl)-3-phenyl-3-(piperidin-1-yl)indolin-2-one] | 84 | 542 |  |  |
| Cc1noc(C)c1-c1ccc2c(c1)C(c1ccccc1)(N1CCC(O)CC1)C(=O)N2 (stereo not drawn) [Compound 2.4, 5-(3,5-dimethylisoxazol-4-yl)-3-(4-hydroxypiperidin-1-yl)-3-phenylindolin-2-one] | 36 | 76 |  |  |
| Cc1noc(C)c1-c1ccc2c(c1)C(c1ccccc1)(N1CCN(C)CC1)C(=O)N2 (stereo not drawn) [Compound 2.5, 5-(3,5-dimethylisoxazol-4-yl)-3-(4-methylpiperazin-1-yl)-3-phenylindolin-2-one] | 110 | 420 |  |  |
| Cc1noc(C)c1-c1ccc2c(c1)C(c1ccccc1)(N1CCOCC1)C(=O)N2 (stereo not drawn) [Compound 2.6, 5-(3,5-dimethylisoxazol-4-yl)-3-morpholino-3-phenylindolin-2-one] | 63 | 179 |  |  |
| Cc1noc(C)c1-c1ccc2c(c1)C(NCCO)(C1CCCCC1)C(=O)N2 (stereo not drawn) [Compound 2.18, 3-cyclohexyl-5-(3,5-dimethylisoxazol-4-yl)-3-(2-hydroxyethylamino)indolin-2-one] | 85 | 204 |  |  |
| Cc1noc(C)c1-c1ccc2c(c1)C(NC[C@H](C)O)(C1CCCCC1)C(=O)N2 (stereo partly drawn) [Compound 2.21, 3-cyclohexyl-5-(3,5-dimethylisoxazol-4-yl)-3-((S)-2-hydroxypropylamino)indolin-2-one] | 88 |  | 270 |  |
| Cc1noc(C)c1-c1ccc2c(c1)C(N[C@@H](C)CO)(C1CCCCC1)C(=O)N2 (stereo partly drawn) [Compound 2.23, 3-cyclohexyl-5-(3,5-dimethylisoxazol-4-yl)-3-((S)-1-hydroxypropan-2-ylamino)indolin-2-one] | 160 | 371 |  |  |
| Cc1noc(C)c1-c1ccc2c(c1)C(N[C@H](C)CO)(C1CCCCC1)C(=O)N2 (stereo partly drawn) [Compound 2.24, 3-cyclohexyl-5-(3,5-dimethylisoxazol-4-yl)-3-((R)-1-hydroxypropan-2-ylamino)indolin-2-one] | 75 | 349 |  |  |
| Cc1noc(C)c1-c1ccc2c(c1)C(NC(C)C)(C1CCCCC1)C(=O)N2 (stereo not drawn) [Compound 2.27, 3-cyclohexyl-5-(3,5-dimethylisoxazol-4-yl)-3-(isopropylamino)indolin-2-one] | 85 | 833 |  |  |
| Cc1noc(C)c1-c1ccc2c(c1)C(NCCN(C)C)(C1CCCCC1)C(=O)N2 (stereo not drawn) [Compound 2.28, 3-cyclohexyl-3-(2-(dimethylamino)ethylamino)-5-(3,5-dimethylisoxazol-4-yl)indolin-2-one] | 140 | 539 |  |  |
| Cc1noc(C)c1-c1ccc2c(c1)C(C1CCCCC1)(N1CCOCC1)C(=O)N2 (stereo not drawn) [Compound 2.29] | 94 | 314 |  |  |
| Cc1noc(C)c1-c1ccc2c(c1)C(C1CCCC1)(N1CCOCC1)C(=O)N2 (stereo not drawn) [Compound 2.34, 3-cyclopentyl-5-(3,5-dimethylisoxazol-4-yl)-3-morpholinoindolin-2-one] | 120 | 438 |  |  |
| Cc1noc(C)c1-c1ccc2c(c1)C(NCCO)(C1CCCC1)C(=O)N2 (stereo not drawn) [Compound 2.35, 3-cyclopentyl-5-(3,5-dimethylisoxazol-4-yl)-3-(2-hydroxyethylamino)indolin-2-one] | 130 | 324 |  |  |

Reference: patent US9393232B2 (BeiGene, Ltd., priority 2013, dated 2016)
